# Source: US20080221330A1, “Mutilin-Derivative Substituted at Position 12” (priority 2004, published 2008)
# Where a name gives a salt, the structure may show the parent alone.
# Tests used:
# S. pneumoniae IID 553 = experiment: Minimum inhibitory concentration (MIC) by NCCLS agar dilution technique; type: cell-based
# Method: (§1) The minimum inhibitory concentration (MIC) was determined for each compound by NCCLS agar dilution technique (Methods for dilution antimicrobial susceptibility tests for bacteria that grow aerobically; approved standard-sixth edition. […] The results are shown in Table below and indicate that the compounds of the present invention have high antimicrobial activity.
# S. aureus 209P = experiment: as above; type: cell-based
# Method: as §1
SMILES,"minimum inhibitory concentration (MIC), in vitro antimicrobial activity (S. pneumoniae IID 553)","minimum inhibitory concentration (MIC), in vitro antimicrobial activity (S. aureus 209P)"
"CC1C(O)C(C)(C)CC(OC(=O)NC(=O)C2CN3CCC2C3)C2(C)C(C)CCC13CCC(=O)C32.Cl [Example 2, 14-{(3R,4S)-1-azabicyclo[2.2.1]heptane-3-carbonyl}carbamoyl-12-desethenyl-12-methylmutilin hydrochloride]",1,0.125
"C=CCC1(C)CC(OC(=O)NC(=O)C2CN3CCC2C3)C2(C)C(C)CCC3(CCC(=O)C32)C(C)C1O.Cl [Example 4, 14-{(3R,4S)-1-azabicyclo[2.2.1]heptane-3-carbonyl}carbamoyl-12-desethenyl-12-(1-propene-3-yl)mutilin hydrochloride]",0.5,0.125
"CCC[C@]1(C)C[C@@H](OC(=O)NC(=O)[C@H]2CN3CC[C@@H]2C3)[C@@]2(C)C3C(=O)CCC3(CC[C@H]2C)[C@@H](C)[C@@H]1O (stereo partly drawn) [Example 17, 14-{(3R,4S)-1-azabicyclo[2.2.1]heptane-3-carbonyl}carbamoyl-12-desethenyl-12-propylmutilin hydrochloride]",2,0.125
"CCCC[C@]1(C)C[C@@H](OC(=O)NC(=O)[C@H]2CN3CC[C@@H]2C3)[C@@]2(C)C3C(=O)CCC3(CC[C@H]2C)[C@@H](C)[C@@H]1O (stereo partly drawn) [Example 18, 12-butyl-14-{(3R,4S)-1-azabicyclo[2.2.1]heptane-3-carbonyl}car bamoyl-12-desethenylmutilin]",2,0.125
"C/C=C/C[C@]1(C)C[C@@H](OC(=O)NC(=O)[C@H]2CN3CC[C@@H]2C3)[C@@]2(C)C3C(=O)CCC3(CC[C@H]2C)[C@@H](C)[C@@H]1O (stereo partly drawn) [Example 20, 14-{(3R,4S)-1-azabicyclo[2.2.1]heptane-3-carbonyl}carbamoyl-12-[(E)-2-butene-4-yl]-12-desethenylmutilin]",0.5,0.06
"C=C[C@]1(C)C[C@@H](OC(=O)CSCCN(CC)CC)[C@]2(C)[C@H](C)CC[C@]3(CCC(=O)[C@H]32)[C@@H](C)[C@@H]1O [tiamulin, reference compound]",1-2,0.06-0.125
